Test results from US11344652B2, “Ionic liquids that sterilize and prevent biofilm formation in skin wound healing devices” (The Arizona Board of Regents on Behalf of Northern Arizona …, priority 2016, dated 2022).
Where “and” joins values, the source holds several entries; their conditions need not be identical. Equal values may be shown once.

Assay: Physical characterization of CAGE at 25° C.
Format: physicochemical
Method: Physical characterization at 25° C. was in good agreement with published values and was as follows: density, 0.989±0.001 g mL^−1; and conductivity, 0.0427±0.0005 mS cm^−1.
Physicochemical properties were identical to those previously published confirming purity (Zakrewsky et al., PNAS, 2014, 111, 13313; incorporated by reference herein in its entirety, and for the disclosure referenced herein). CAGE has unique properties based upon the 1:1:1 ratio of cation:anion:protonated acid. This is important since it gives rise to the low conductivity determined for CAGE (0.043 mS cm^−1) and is a potential indicator of anti-biofilm efficacy but, also provides insight to minimized skin irritation potential.

In the case of choline geranate [CAGE], the conductivity is reported as 0.0427±0.0005 mS cm^−1 and 0.043 mS cm^−1 and the density is reported as 0.989 ± 0.001 g/mL.
